Reference: ChEMBL document CHEMBL1201862, “PubChem BioAssay data set” (2004)
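All cell lines were grown in 96-well plates and treated with compound for 48 hours. GI50 marks 50% less growth.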 The source made the active and inactive calls. No stated cut-off is given here; in the data, active = GI50 up to about 1.1 µM and inactive = higher.

Columns and labels:
Experiment in all cases: NCI-60 cell line screen, 48 h
SF-268 = tested on: SF-268
UACC-62 = tested on: UACC-62
MCF7 = tested on: MCF7
DMS-114 = tested on: DMS-114
MDA-MB-435 = tested on: MDA-MB-435
NCI-H23 = tested on: NCI-H23
CAKI-1 = tested on: CAKI-1
SF-539 = tested on: SF-539
SN12C = tested on: SN12C
CCRF-CEM = tested on: CCRF-CEM
NCI-H522 = tested on: NCI-H522
UO-31 = tested on: UO-31
NCI-H226 = tested on: NCI-H226
OVCAR-5 = tested on: OVCAR-5
SF-295 = tested on: SF-295
U-251 = tested on: U-251
NCI/ADR-RES = tested on: NCI/ADR-RES
HT-29 = tested on: HT-29
A549 = tested on: A549
HL-60 = tested on: HL-60
A498 = tested on: A498
MOLT-4 = tested on: MOLT-4
SK-MEL-5 = tested on: SK-MEL-5
K562 = tested on: K562
HOP-92 = tested on: HOP-92
EKVX = tested on: EKVX
HCT-116 = tested on: HCT-116
DMS-273 = tested on: DMS-273
SW-620 = tested on: SW-620
NCI-H460 = tested on: NCI-H460
MDA-N = tested on: MDA-N
IGROV-1 = tested on: IGROV-1
BT-549 = tested on: BT-549
OVCAR-3 = tested on: OVCAR-3
DLD-1 = tested on: DLD-1
DU-145 = tested on: DU-145
SNB-19 = tested on: SNB-19
T47D = tested on: T47D
XF498 = tested on: XF498
RXF 393 = tested on: RXF 393
LOX IMVI = tested on: LOX IMVI
PC-3 = tested on: PC-3
SNB-78 = tested on: SNB-78
HCT-15 = tested on: HCT-15
OVCAR-8 = tested on: OVCAR-8
SK-OV-3 = tested on: SK-OV-3
TK-10 = tested on: TK-10
Hs-578T = tested on: Hs-578T
COLO 205 = tested on: COLO 205
SK-MEL-2 = tested on: SK-MEL-2
HOP-18 = tested on: HOP-18
Malme-3M = tested on: Malme-3M
OVCAR-4 = tested on: OVCAR-4
KM-20L2 = tested on: KM-20L2
SR = tested on: SR
M19-MEL = tested on: M19-MEL
M14 = tested on: M14
MDA-MB-231 = tested on: MDA-MB-231
ACHN = tested on: ACHN
HOP-62 = tested on: HOP-62
RPMI-8226 = tested on: RPMI-8226
786-0 = tested on: 786-0
KM12 = tested on: KM12
SNB-75 = tested on: SNB-75
LXFL 529 = tested on: LXFL 529
SK-MEL-28 = tested on: SK-MEL-28
HCC 2998 = tested on: HCC 2998
UACC-257 = tested on: UACC-257
RXF 631 = tested on: RXF 631

Question: With N#CC1(C2SCC[S+]2[O-])C2=C(C(=O)c3ccccc3C2=O)N2CCCC21 (centres undefined) as the compound, how does the GI50 (SF-268) read?
Answer: 3010 nM (inactive)

Question: What about the GI50 (UACC-62) of the same compound?
Answer: 2850 nM (inactive)

Question: And the GI50 (MCF7)?
Answer: 1630 nM (inactive)

Question: And the GI50 (DMS-114)?
Answer: 2140 nM (inactive)

Question: What about the GI50 (MDA-MB-435) of the same compound?
Answer: 497 nM (active)

Question: And the GI50 (NCI-H23)?
Answer: 1110 nM (active)

Question: What about the GI50 (CAKI-1) of the same compound?
Answer: 4420 nM (inactive)

Question: And the GI50 (SF-539)?
Answer: 3000 nM (inactive)

Question: And the GI50 (SN12C)?
Answer: 2380 nM (inactive)

Question: And the GI50 (CCRF-CEM)?
Answer: 2940 nM (inactive)

Question: And the GI50 (NCI-H522)?
Answer: 2110 nM (inactive)

Question: What about the GI50 (UO-31) of the same compound?
Answer: 4680 nM (inactive)

Question: And the GI50 (NCI-H226)?
Answer: 3660 nM (inactive)

Question: And the GI50 (OVCAR-5)?
Answer: 3780 nM (inactive)

Question: And the GI50 (SF-295)?
Answer: 1990 nM (inactive)

Question: What about the GI50 (U-251) of the same compound?
Answer: 3400 nM (inactive)

Question: And the GI50 (NCI/ADR-RES)?
Answer: 3120 nM (inactive)

Question: And the GI50 (HT-29)?
Answer: 3590 nM (inactive)

Question: What about the GI50 (A549) of the same compound?
Answer: 2100 nM (inactive)

Question: What about the GI50 (HL-60) of the same compound?
Answer: 1550 nM (inactive)

Question: And the GI50 (A498)?
Answer: 4070 nM (inactive)

Question: And the GI50 (MOLT-4)?
Answer: 3060 nM (inactive)

Question: What about the GI50 (SK-MEL-5) of the same compound?
Answer: 364 nM (active)

Question: And the GI50 (K562)?
Answer: 3380 nM (inactive)

Question: What about the GI50 (HOP-92) of the same compound?
Answer: 3850 nM (inactive)

Question: And the GI50 (EKVX)?
Answer: 4800 nM (inactive)

Question: And the GI50 (HCT-116)?
Answer: 2000 nM (inactive)

Question: What about the GI50 (DMS-273) of the same compound?
Answer: 3030 nM (inactive)

Question: And the GI50 (SW-620)?
Answer: 2130 nM (inactive)

Question: And the GI50 (NCI-H460)?
Answer: 2320 nM (inactive)

Question: What about the GI50 (MDA-N) of the same compound?
Answer: 605 nM (active)

Question: What about the GI50 (IGROV-1) of the same compound?
Answer: 1750 nM (inactive)

Question: And the GI50 (BT-549)?
Answer: 2290 nM (inactive)

Question: And the GI50 (OVCAR-3)?
Answer: 583 nM (active)

Question: What about the GI50 (DLD-1) of the same compound?
Answer: 2740 nM (inactive)

Question: And the GI50 (DU-145)?
Answer: 2180 nM (inactive)

Question: What about the GI50 (SNB-19) of the same compound?
Answer: 6350 nM (inactive)

Question: And the GI50 (T47D)?
Answer: 3300 nM (inactive)

Question: What about the GI50 (XF498) of the same compound?
Answer: 2550 nM (inactive)

Question: And the GI50 (RXF 393)?
Answer: 998 nM (active)

Question: And the GI50 (LOX IMVI)?
Answer: 986 nM (active)

Question: What about the GI50 (PC-3) of the same compound?
Answer: 1880 nM (inactive)

Question: And the GI50 (SNB-78)?
Answer: 1490 nM (inactive)

Question: And the GI50 (HCT-15)?
Answer: 2210 nM

Question: What about the GI50 (OVCAR-8) of the same compound?
Answer: 2180 nM (inactive)

Question: And the GI50 (SK-OV-3)?
Answer: 15300 nM (inactive)

Question: And the GI50 (TK-10)?
Answer: 8770 nM (inactive)

Question: And the GI50 (Hs-578T)?
Answer: 3460 nM (inactive)

Question: And the GI50 (COLO 205)?
Answer: 2240 nM (inactive)

Question: What about the GI50 (SK-MEL-2) of the same compound?
Answer: 1690 nM (inactive)

Question: And the GI50 (HOP-18)?
Answer: 3250 nM (inactive)

Question: What about the GI50 (Malme-3M) of the same compound?
Answer: 381 nM (active)

Question: And the GI50 (OVCAR-4)?
Answer: 1700 nM (inactive)

Question: What about the GI50 (KM-20L2) of the same compound?
Answer: 4970 nM (inactive)

Question: What about the GI50 (SR) of the same compound?
Answer: 935 nM (active)

Question: What about the GI50 (M19-MEL) of the same compound?
Answer: 286 nM (active)

Question: What about the GI50 (M14) of the same compound?
Answer: 1170 nM (inactive)

Question: What about the GI50 (MDA-MB-231) of the same compound?
Answer: 2170 nM (inactive)

Question: And the GI50 (ACHN)?
Answer: 5520 nM (inactive)

Question: What about the GI50 (HOP-62) of the same compound?
Answer: 5280 nM (inactive)

Question: What about the GI50 (RPMI-8226) of the same compound?
Answer: 1050 nM (active)

Question: And the GI50 (786-0)?
Answer: 4210 nM (inactive)

Question: What about the GI50 (KM12) of the same compound?
Answer: 3020 nM (inactive)

Question: What about the GI50 (SNB-75) of the same compound?
Answer: 3230 nM (inactive)

Question: What about the GI50 (LXFL 529) of the same compound?
Answer: 2740 nM (inactive)

Question: And the GI50 (SK-MEL-28)?
Answer: 2850 nM (inactive)

Question: And the GI50 (HCC 2998)?
Answer: 4850 nM (inactive)

Question: And the GI50 (UACC-257)?
Answer: 1360 nM (inactive)

Question: And the GI50 (RXF 631)?
Answer: 1460 nM (inactive)
